Data as given in patent US6737383B1, “Herbicidal oxadiazolidines” (priority 1999, dated 2004).

Assays:
[1] = tested on: bedstraw; assay: Test B pre/postemergence bedstraw; format: in vivo, Galium aparine
How it was run: (§1)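 Test chemicals in a non-phytotoxic solvent mixture with surfactant were sprayed preemergence onto planted seeds and postemergence onto plants 2 to 18 cm tall (1- to 4-leaf stage). After twelve to sixteen days in a greenhouse, injury was visually rated against untreated controls from 0 (no effect) to 10 (complete control).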

[2] = tested on: blackgrass; assay: Test B pre/postemergence blackgrass; format: in vivo, Alopecurus myosuroides
How it was run: as §1

[3] = tested on: surinam grass; assay: Test B pre/postemergence surinam grass; format: in vivo, Brachiaria decumbens
How it was run: as §1

[4] = tested on: cocklebur; assay: Test B pre/postemergence cocklebur; format: in vivo, Xanthium strumarium
How it was run: as §1

[5] = tested on: corn; assay: Test B pre/postemergence corn; format: in vivo, Zea mays
How it was run: as §1

[6] = tested on: crabgrass; assay: Test B pre/postemergence crabgrass; format: in vivo, Digitaria sanguinalis
How it was run: as §1

[7] = tested on: giant foxtail; assay: Test B pre/postemergence giant foxtail; format: in vivo, Setaria faberii
How it was run: as §1

[8] = tested on: morningglory; assay: Test B pre/postemergence morningglory; format: in vivo, Ipomoea hederacea
How it was run: as §1

[9] = tested on: pigweed; assay: Test B pre/postemergence pigweed; format: in vivo, Amaranthus retroflexus
How it was run: as §1

[10] = tested on: rape; assay: Test B pre/postemergence rape; format: in vivo, Brassica napus
How it was run: as §1

[11] = tested on: soybean; assay: Test B pre/postemergence soybean; format: in vivo, Glycine max
How it was run: as §1

[12] = tested on: sugar beet; assay: Test B pre/postemergence sugar beet; format: in vivo, Beta vulgaris
How it was run: as §1

[13] = tested on: velvetleaf; assay: Test B pre/postemergence velvetleaf; format: in vivo, Abutilon theophrasti
How it was run: as §1

[14] = tested on: wheat; assay: Test B pre/postemergence wheat; format: in vivo, Triticum aestivum
How it was run: as §1

[15] = tested on: wild oat; assay: Test B pre/postemergence wild oat; format: in vivo, Avena fatua
How it was run: as §1

[16] = tested on: purple nutsedge; assay: Test B pre/postemergence purple nutsedge; format: in vivo, Cyperus rotundus
How it was run: as §1

[17] = tested on: rice; assay: Test B flood test rice; format: in vivo, Oryza sativa
How it was run: (§2)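 Flood test on plants grown to the 2-leaf stage; treated plants kept in greenhouse twelve to sixteen days, then visually rated against controls on a 0 (no effect) to 10 (complete control) scale.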

[18] = tested on: smallflower flatsedge; assay: Test B flood test smallflower flatsedge; format: in vivo, Cyperus difformis
How it was run: as §2

[19] = tested on: duck salad; assay: Test B flood test duck salad; format: in vivo, Heteranthera limosa
How it was run: as §2

[20] = tested on: bamyardgrass; assay: Test B flood test barnyardgrass; format: in vivo, Echinochloa crus-galli
How it was run: as §2

[21] = Postemergence, Rate 62 g/ha, scale 0 to 10, 0 is no effect, 10 is complete control
[22] = Preemergence, Rate 62 g/ha, scale 0 to 10 (0 no effect, 10 complete control)
[23] = Preemergence, Rate 125 g/ha, scale of 0 to 10 where 0 is no effect and 10 is complete control
[24] = Preemergence, Rate 500 g/ha, scale of 0 to 10 where 0 is no effect and 10 is complete control
[25] = Postemergence, Rate 250 g/ha, scale of 0 to 10, 0 is no effect, 10 is complete control
[26] = Postemergence, Rate 500 g/ha, scale of 0 to 10 where 0 is no effect and 10 is complete control
[27] = Preemergence, Rate 250 g/ha, scale 0 to 10 (0 no effect, 10 complete control)
[28] = Rate 62 g/ha, flood test species, Pre-emergence, visual evaluation after twelve to sixteen days
[29] = Rate 125 g/ha, under heading Pre-emergence, flood test species, visual evaluation after twelve to sixteen days
[30] = Rate 250 g/ha, Pre-emergence (flood test species), scale 0 to 10, 0 is no effect, 10 is complete control
[31] = Rate 500 g/ha, Pre-emergence section of Table B, 0 to 10 scale (0 no effect, 10 complete control)

With `CC(=O)NCn1c(=O)on(C(=O)N(c2ccc(F)cc2F)C(C)C)c1=O` [Compound 622] the “Plant response rating, Bedstraw” value [1, 21] was 0, the “Bedstraw plant response rating” value [1, 22] was 0 and the “Bedstraw plant response rating” value [1, 23] was 0. For the same compound, the “Plant response rating, Bedstraw” value [1, 24] was 2, the “Plant response rating, Blackgrass” value [2, 21] was 0 and the “Blackgrass plant response rating” value [2, 25] was 0. For the same compound, the “Plant response rating, Blackgrass” value [2, 26] was 0, the “Blackgrass plant response rating” value [2, 22] was 1 and the “Blackgrass plant response rating” value [2, 23] was 2. For the same compound, the “Plant response rating, Blackgrass” value [2, 27] was 3, the “Plant response rating, Blackgrass” value [2, 24] was 6 and the “Plant response rating, B. signalgrass” value [3, 21] was 0. For the same compound, the “B. signalgrass plant response rating” value [3, 25] was 0, the “Plant response rating, B. signalgrass” value [3, 26] was 0 and the “B. signalgrass plant response rating” value [3, 22] was 0. The “B. signalgrass plant response rating” value [3, 23] was 0, the “Plant response rating, B. signalgrass” value [3, 27] was 0 and the “Plant response rating, B. signalgrass” value [3, 24] was 4. The “Plant response rating, Cocklebur” value [4, 21] was 0, the “Cocklebur plant response rating” value [4, 25] was 0 and the “Plant response rating, Cocklebur” value [4, 26] was 2. The “Cocklebur plant response rating” value [4, 22] was 0, the “Cocklebur plant response rating” value [4, 23] was 0 and the “Plant response rating, Cocklebur” value [4, 27] was 0. For the same compound, the “Plant response rating, Corn” value [5, 21] was 0, the “Corn plant response rating” value [5, 25] was 0 and the “Plant response rating, Corn” value [5, 26] was 0. The “Corn plant response rating” value [5, 22] was 0, the “Corn plant response rating” value [5, 23] was 0 and the “Plant response rating, Corn” value [5, 27] was 0. The “Plant response rating, Corn” value [5, 24] was 0, the “Plant response rating, Crabgrass” value [6, 21] was 2 and the “Plant response rating, Crabgrass” value [6, 26] was 5. The “Crabgrass plant response rating” value [6, 22] was 6, the “Crabgrass plant response rating” value [6, 23] was 6 and the “Plant response rating, Crabgrass” value [6, 27] was 7. The “Plant response rating, Crabgrass” value [6, 24] was 8, the “Plant response rating, Giant foxtail” value [7, 21] was 0 and the “Giant foxtail plant response rating” value [7, 25] was 6. The “Plant response rating, Giant foxtail” value [7, 26] was 7, the “Giant foxtail plant response rating” value [7, 22] was 4 and the “Plant response rating, Giant foxtail” value [7, 27] was 9. For the same compound, the “Plant response rating, Giant foxtail” value [7, 24] was 9, the “Plant response rating, Morningglory” value [8, 21] was 0 and the “Morningglory plant response rating” value [8, 25] was 2. The “Plant response rating, Morningglory” value [8, 26] was 2, the “Morningglory plant response rating” value [8, 22] was 0 and the “Morningglory plant response rating” value [8, 23] was 0. The “Plant response rating, Morningglory” value [8, 27] was 0, the “Plant response rating, Morningglory” value [8, 24] was 0 and the “Plant response rating, Redroot pigweed” value [9, 21] was 0. The “Redroot pigweed plant response rating” value [9, 25] was 0, the “Redroot pigweed plant response rating” value [9, 22] was 4 and the “Redroot pigweed plant response rating” value [9, 23] was 7. For the same compound, the “Plant response rating, Redroot pigweed” value [9, 27] was 10, the “Plant response rating, Redroot pigweed” value [9, 24] was 10 and the “Plant response rating, Rape” value [10, 21] was 0. For the same compound, the “Rape plant response rating” value [10, 25] was 0, the “Plant response rating, Rape” value [10, 26] was 0 and the “Rape plant response rating” value [10, 22] was 0. For the same compound, the “Rape plant response rating” value [10, 23] was 0, the “Plant response rating, Rape” value [10, 27] was 0 and the “Plant response rating, Rape” value [10, 24] was 0. The “Plant response rating, Soybean” value [11, 21] was 4, the “Soybean plant response rating” value [11, 25] was 6 and the “Soybean plant response rating” value [11, 22] was 0. The “Soybean plant response rating” value [11, 23] was 0, the “Plant response rating, Soybean” value [11, 27] was 0 and the “Plant response rating, Soybean” value [11, 24] was 0. For the same compound, the “Plant response rating, Sugarbeets” value [12, 21] was 0, the “Sugarbeets plant response rating” value [12, 25] was 2 and the “Sugarbeets plant response rating” value [12, 22] was 0. For the same compound, the “Sugarbeets plant response rating” value [12, 23] was 0, the “Plant response rating, Sugarbeets” value [12, 27] was 0 and the “Plant response rating, Sugarbeets” value [12, 24] was 3. The “Plant response rating, Velvetleaf” value [13, 21] was 0, the “Velvetleaf plant response rating” value [13, 25] was 0 and the “Velvetleaf plant response rating” value [13, 22] was 0. For the same compound, the “Velvetleaf plant response rating” value [13, 23] was 0, the “Plant response rating, Velvetleaf” value [13, 27] was 0 and the “Plant response rating, Velvetleaf” value [13, 24] was 4. For the same compound, the “Plant response rating, Wheat” value [14, 21] was 0, the “Wheat plant response rating” value [14, 25] was 0 and the “Wheat plant response rating” value [14, 22] was 0. For the same compound, the “Wheat plant response rating” value [14, 23] was 0, the “Plant response rating, Wheat” value [14, 27] was 0 and the “Plant response rating, Wheat” value [14, 24] was 0. For the same compound, the “Plant response rating, Wild oats” value [15, 21] was 0, the “Wild oats plant response rating” value [15, 25] was 0 and the “Wild oats plant response rating” value [15, 22] was 0. For the same compound, the “Wild oats plant response rating” value [15, 23] was 0, the “Plant response rating, Wild oats” value [15, 27] was 0 and the “Plant response rating, Wild oats” value [15, 24] was 3. For the same compound, the “Plant response rating, Nutsedge” value [16, 21] was 0, the “Nutsedge plant response rating” value [16, 25] was 0 and the “Plant response rating, Nutsedge” value [16, 26] was 0. The “Nutsedge plant response rating” value [16, 22] was 0, the “Nutsedge plant response rating” value [16, 23] was 0 and the “Plant response rating, Nutsedge” value [16, 27] was 0. For the same compound, the “Plant response rating, Nutsedge” value [16, 24] was 3, the “Plant response rating, Rice (0 to 10 scale, 0 is no effect, 10 is complete control)” value [17, 28] was 0 and the “Rice plant response rating (0 to 10 scale, 0 is no effect, 10 is complete control)” value [17, 29] was 0. The “Rice plant response rating” value [17, 30] was 0, the “Rice plant response rating” value [17, 31] was 0 and the “Plant response rating, S. Flatsedge (0 to 10 scale, 0 is no effect, 10 is complete control)” value [18, 28] was 0. For the same compound, the “S. Flatsedge plant response rating (0 to 10 scale, 0 is no effect, 10 is complete control)” value [18, 29] was 0, the “S. Flatsedge plant response rating” value [18, 30] was 0 and the “S. Flatsedge plant response rating” value [18, 31] was 0. The “Plant response rating, Ducksalad (0 to 10 scale, 0 is no effect, 10 is complete control)” value [19, 28] was 0, the “Ducksalad plant response rating (0 to 10 scale, 0 is no effect, 10 is complete control)” value [19, 29] was 0 and the “Ducksalad plant response rating” value [19, 30] was 0. The “Ducksalad plant response rating” value [19, 31] was 0, the “Plant response rating, Barnyardgrass (0 to 10 scale, 0 is no effect, 10 is complete control)” value [20, 28] was 0 and the “Barnyardgrass plant response rating (0 to 10 scale, 0 is no effect, 10 is complete control)” value [20, 29] was 0. For the same compound, the “Barnyardgrass plant response rating” value [20, 30] was 0 and the “Barnyardgrass plant response rating” value [20, 31] was 0.
